From patent US20070173462A1, “Treatment of diseases associated with the use of antibiotics” (Optimer Pharmaceuticals, Inc., priority 2004, published 2007)
Values after ≈ are worked out from the molar mass of the structure shown.

What was measured:
Clostridium difficile = test: MIC, 207 clinical isolates of C. difficile; format: cell-based; settings: clinical isolates, n=207
Description: Compound I was additionally tested against anaerobic clinical isolates and against aerobic bacteria. […] The compound was also active against clinical strains of Staphylococcus sp. and Enterococcus sp.

C. bolteae = test: microbe, parasite or virus in culture; format: cell-based; settings: clinical isolates, n=6
C. clostridioforme = test: organism not typed; format: cell-based; settings: clinical isolates, n=5
C. difficile = test: microbe, parasite or virus in culture; format: cell-based; settings: clinical isolates, n=23
C. glycolicum = test: microbe, parasite or virus in culture; format: cell-based; settings: clinical isolates, n=9
C. innocuum = test: microbe, parasite or virus in culture; format: cell-based; settings: clinical isolates, n=9
C. paraputrificum = test: microbe, parasite or virus in culture; format: cell-based; settings: clinical isolates, n=10
C. perfringens = test: microbe, parasite or virus in culture; format: cell-based
C. ramosum = test: microbe, parasite or virus in culture; format: cell-based; settings: clinical isolates, n=10
C. sordellii = test: microbe, parasite or virus in culture; format: cell-based; settings: clinical isolates, n=5
Other Clostridium sp. = test: microbe, parasite or virus in culture; format: cell-based; settings: clinical isolates, n=11
[1] = tested on: Bacteroides fragilis group; test: microbe, parasite or virus in culture; format: cell-based; settings: clinical gastrointestinal isolates, n=54
Veillonella sp. = test: microbe, parasite or virus in culture; format: cell-based; settings: Veillonella; clinical gastrointestinal isolates, n=10
[2] = tested on: Other anaerobic Gram negative rods; test: organism not typed; format: cell-based; settings: clinical gastrointestinal isolates, n=51
[3] = tested on: Non-spore forming Gram positive rods; test: organism not typed; format: cell-based; settings: clinical gastrointestinal isolates, n=64
[4] = tested on: Anaerobic Gram positive cocci; test: organism not typed; format: cell-based; settings: clinical gastrointestinal isolates, n=49
[5] = tested on: Streptococcus milleri group; test: microbe, parasite or virus in culture; format: cell-based; settings: clinical gastrointestinal isolates, n=14
Streptococcus sp. = test: microbe, parasite or virus in culture; format: cell-based; settings: clinical gastrointestinal isolates, n=9
Eschericia coli = test: organism not typed; format: cell-based; settings: clinical gastrointestinal isolates, n=10
Enterobacter sp. = test: microbe, parasite or virus in culture; format: cell-based; settings: Enterobacter; clinical gastrointestinal isolates, n=20
Klebsiella sp. = test: microbe, parasite or virus in culture; format: cell-based; settings: clinical gastrointestinal isolates, n=10
Proteus mirabilis = test: microbe, parasite or virus in culture; format: cell-based; settings: clinical gastrointestinal isolates, n=10
Pseudomonas aeruginosa = test: microbe, parasite or virus in culture; format: cell-based; settings: clinical gastrointestinal isolates, n=10
Enterococcus sp. = test: microbe, parasite or virus in culture; format: cell-based; settings: clinical gastrointestinal isolates, n=22
Stephylococcus sp. = test: organism not typed; format: cell-based; settings: clinical gastrointestinal isolates, n=19
toxigenic C. difficile = test: Hamster model of clindamycin-induced Clostridium difficile associated diarrhea/colitis; format: in vivo, Syrian hamsters; settings: oral treatment for 7 days; untreated infection uniformly fatal between days two and six
Protocol: Animals were treated with two oral doses of clindamycin at 100 mg/kg. Three days after the second dose of clindamycin, they were inoculated with toxigenic C. difficile spores. […] Animals were observed daily for the presence or absence of diarrhea. Necropsies were performed on some animals that died during the experiment, and cecal contents were assayed for C. difficile toxin A. Hamsters were monitored for 20 days, and the cumulative mortality during this period was recorded (FIG. 1).

## CN[C@H](CC(C)C)C(=O)N[C@H]1C(=O)N[C@@H](CC(N)=O)C(=O)N[C@H]2C(=O)N[C@H]3C(=O)N[C@H](C(=O)N[C@H](C(=O)O)c4cc(O)cc(O)c4-c4cc3ccc4O)[C@H](O)c3ccc(c(Cl)c3)Oc3cc2cc(c3O[C@@H]2O[C@H](CO)[C@@H](O)[C@H](O)[C@H]2O[C@H]2C[C@](C)(N)[C@H](O)[C@H](C)O2)Oc2ccc(cc2Cl)[C@H]1O [Vancomycin]
Clostridium difficile; Clostridioides difficile
  MIC90: 0.5 µg/mL (≈ 0.345 µM)
Clostridium difficile; Clostridioides difficile, read-out: MIC50
  MIC50: 0.5 µg/mL (≈ 0.345 µM)
Clostridium difficile
  Range (MIC): 0.0156-0.5
C. bolteae; Enterocloster bolteae
  MIC50: 16 µg/mL (≈ 11 µM)
  MIC90: 16 µg/mL (≈ 11 µM)
C. bolteae
  Range (MIC): 1 to 16 µg/mL
C. clostridioforme
  MIC50: 1 µg/mL (≈ 0.69 µM)
  MIC90: 8 µg/mL (≈ 5.52 µM)
  Range (MIC): 1 to 8 µg/mL
C. difficile; Clostridioides difficile
  MIC50: 1 µg/mL (≈ 0.69 µM)
  MIC90: 2 µg/mL (≈ 1.38 µM)
C. difficile
  Range (MIC): 0.5-4^ μg/mL
C. glycolicum; Terrisporobacter glycolicus
  MIC50: 1 µg/mL (≈ 0.69 µM)
  MIC90: 1 µg/mL (≈ 0.69 µM)
C. glycolicum
  Range (MIC): 0.5-1^ μg/mL
C. innocuum; [Clostridium] innocuum
  MIC50: 16 µg/mL (≈ 11 µM)
  MIC90: 16 µg/mL (≈ 11 µM)
C. innocuum
  Range (MIC): 8 to 16 µg/mL
C. paraputrificum; Clostridium paraputrificum
  MIC50: 2 µg/mL (≈ 1.38 µM)
  MIC90: 2 µg/mL (≈ 1.38 µM)
C. paraputrificum
  Range (MIC): 1 to 2 µg/mL
C. perfringens
  Range (MIC): 0.5-1^ μg/mL
C. perfringens; Clostridium perfringens
  MIC50: 1 µg/mL (≈ 0.69 µM)
  MIC90: 1 µg/mL (≈ 0.69 µM)
C. ramosum; Thomasclavelia ramosa
  MIC50: 4 µg/mL (≈ 2.76 µM)
  MIC90: 8 µg/mL (≈ 5.52 µM)
C. ramosum
  Range (MIC): 4 to 8 µg/mL
C. sordellii; Paraclostridium sordellii
  MIC50: 1 µg/mL (≈ 0.69 µM)
  MIC90: 1 µg/mL (≈ 0.69 µM)
C. sordellii
  Range (MIC): 1 µg/mL
Other Clostridium sp.; Clostridium
  MIC50: 1 µg/mL (≈ 0.69 µM)
  MIC90: 16 µg/mL (≈ 11 µM)
Other Clostridium sp.
  Range (MIC): 1 to 64 µg/mL
[1]; Bacteroides fragilis
  MIC50: 64 µg/mL (≈ 44.2 µM)
  MIC90: 128 µg/mL (≈ 88.3 µM)
[1]
  Range (MIC): 16 to 256 µg/mL
Veillonella sp.
  MIC50: 512 µg/mL (≈ 353 µM)
  MIC90: 512 µg/mL (≈ 353 µM)
[2]
  MIC50: 512 µg/mL (≈ 353 µM)
  MIC90: > 1020 µg/mL
[3]
  MIC50: 128 µg/mL (≈ 88.3 µM)
  MIC90: > 1020 µg/mL
[4]
  MIC50: 1 µg/mL (≈ 0.69 µM)
  MIC90: 8 µg/mL (≈ 5.52 µM)
[5]; Streptococcus milleri
  MIC50: 1 µg/mL (≈ 0.69 µM)
  MIC90: 1 µg/mL (≈ 0.69 µM)
[5]
  Range (MIC): 1 µg/mL
Streptococcus sp.; Streptococcus
  MIC50: 0.5 µg/mL (≈ 0.345 µM)
  MIC90: 1 µg/mL (≈ 0.69 µM)
Streptococcus sp.
  Range (MIC): 0.5 to 1 µg/mL
Eschericia coli
  MIC50: 512 µg/mL (≈ 353 µM)
  MIC90: > 1020 µg/mL
Enterobacter sp.
  MIC50: > 1020 µg/mL
  MIC90: > 1020 µg/mL
Klebsiella sp.; Klebsiella
  MIC50: > 1020 µg/mL
  MIC90: > 1020 µg/mL
Klebsiella sp.
  Range (MIC): >1024 µg/mL
Proteus mirabilis; Proteus mirabilis
  MIC50: > 1020 µg/mL
  MIC90: > 1020 µg/mL
Proteus mirabilis
  Range (MIC): >1024 µg/mL
Pseudomonas aeruginosa
  MIC50: > 1020 µg/mL
  MIC90: > 1020 µg/mL
Enterococcus sp.; Enterococcus
  MIC50: 1 µg/mL (≈ 0.69 µM)
  MIC90: 4 µg/mL (≈ 2.76 µM)
Enterococcus sp.
  Range (MIC): 0.5-4 ^ μg/mL
Stephylococcus sp.
  MIC50: 2 µg/mL (≈ 1.38 µM)
  MIC90: 4 µg/mL (≈ 2.76 µM)
  Range (MIC): 1 to 4 µg/mL
Toxigenic C. difficile
  protection from infection (cumulative mortality over 20 days): protected the animals from infection
